The assay has as its target hQC (Homo sapiens, UniProt Q16769). Description: Inhibitor assay for glutaminyl cyclase activity (fluorometric, H-Gln-βNA / H-Gln-AMC). In kind it is biochemical. The gist of the method: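 Ki values came from fitting progress curves to a competitive inhibition model; rapid screens used 4 mM inhibitor with substrate at KM. QC activity was read at 30 °C via auxiliary pyroglutamyl aminopeptidase releasing βNA (0.2 mM H-Gln-βNA, 0.2 M Tris pH 8.0, 20 mM EDTA) or AMC (0.05 M Tris pH 8.0, 5 mM EDTA).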

The mark [1] stands for this setting: compound from preparative synthesis, purified, read-out: IC50 hQC.

Read-outs that look alike come from different tables or passages of the source.

Chain of hQC (Q16769 29-361): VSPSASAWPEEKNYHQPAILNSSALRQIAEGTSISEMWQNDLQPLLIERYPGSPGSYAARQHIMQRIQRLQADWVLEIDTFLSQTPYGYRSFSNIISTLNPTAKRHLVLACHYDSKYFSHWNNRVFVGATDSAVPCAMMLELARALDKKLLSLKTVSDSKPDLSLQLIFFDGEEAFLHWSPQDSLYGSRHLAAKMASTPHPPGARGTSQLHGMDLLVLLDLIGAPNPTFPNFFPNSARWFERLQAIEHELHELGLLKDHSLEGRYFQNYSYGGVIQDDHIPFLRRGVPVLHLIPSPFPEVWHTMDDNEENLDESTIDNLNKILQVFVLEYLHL

As to `CC1=C(O)C(=O)N(c2ccc3[nH]cnc3c2)C1c1c(F)c(F)cc(F)c1F` (stereo not shown) [Compound 393, 1-(1H-Benzoimidazol-5-yl)-3-hydroxy-4-methyl-5-(2,3,5,6-tetrafluoro-phenyl)-1,5-dihydro-pyrrol-2-one], the IC50 (read-out: IC50) worked out at 4090 nM.
Consider `CC1=C(O)C(=O)N(c2ccc3[nH]cnc3c2)C1c1ccc(O)cc1O` (stereo not shown) [Compound 265, 1-(1H-Benzoimidazol-5-yl)-5-(2,4-dihydroxy-phenyl)-3-hydroxy-4-methyl-1,5-dihydro-pyrrol-2-one], for which the IC50 (read-out: IC50) came out at 3370 nM.
On the same count and under the same terms, as for `O=C1C(O)=C(c2ccc(O)cc2)C(c2ccccc2O)N1CCCn1ccnc1` (stereo not shown) [Compound 157, 3-Hydroxy-5-(2-hydroxy-phenyl)-4-(4-hydroxy-phenyl)-1-(3-imidazol-1-yl-propyl)-1,5-dihydro-pyrrol-2-one], the figure is 40 nM; as for `O=C1C(O)=C(c2cccc(O)c2)C(c2cc[nH]n2)N1c1ccc2[nH]cnc2c1` (stereo not shown) [Compound 464, 1-(1H-Benzoimidazol-5-yl)-3-hydroxy-4-(3-hydroxy-phenyl)-5-(1H-pyrazol-3-yl)-1,5-dihydro-pyrrol-2-one], 9850 nM.
Same read-out and setting: as for `CCCCCC1=C(O)C(=O)N(CCCn2ccnc2)C1C1=CCCCC1` (stereo not shown) [Compound 201, 5-Cyclohex-1-enyl-3-hydroxy-1-(3-imidazol-1-yl-propyl)-4-pentyl-1,5-dihydro-pyrrol-2-one], the figure is 1300 nM; as for `CC(=O)C1=C(O)C(=O)N(c2ccc3[nH]cnc3c2)C1c1ccco1` (stereo not shown) [Compound 366, 4-Acetyl-1-(1H-benzoimidazol-5-yl)-5-furan-2-yl-3-hydroxy-1,5-dihydro-pyrrol-2-one], 2380 nM; as for `CCC1=C(O)C(=O)N(CCCn2ccnc2)C1c1cccc(O)c1` (stereo not shown) [Compound 252, 4-Ethyl-3-hydroxy-5-(3-hydroxy-phenyl)-1-(3-imidazol-1-yl-propyl)-1,5-dihydro-pyrrol-2-one], 400 nM.
As for `CC(C)CC(=O)C1=C(O)C(=O)N(c2ccc3[nH]cnc3c2)C1c1cc[nH]n1` (stereo not shown) [Compound 427, 1-(1H-Benzoimidazol-5-yl)-3-hydroxy-4-(3-methyl-butyryl)-5-(1H-pyrazol-3-yl)-1,5-dihydro-pyrrol-2-one], where the note is “read-out: IC50”, the half-inhibitory concentration (IC50) was 7960 nM.
On to `CC1=C(O)C(=O)N(CCCn2ccnc2)C1c1c(O)ccc2ccccc12` (stereo not shown) [Compound 42, 3-Hydroxy-5-(2-hydroxy-naphthalen-1-yl)-1-(3-imidazol-1-yl-propyl)-4-methyl-1,5-dihydro-pyrrol-2-one], for which, for the setting “read-out: IC50”, the IC50 worked out at 2200 nM.
Regarding `Cc1ccc(C2C(c3cccc(O)c3)=C(O)C(=O)N2CCCn2ccnc2)cc1` (stereo not shown) [Compound 5, 3-Hydroxy-4-(3-hydroxy-phenyl)-1-(3-imidazol-1-yl-propyl)-5-p-tolyl-1,5-dihydro-pyrrol-2-one], the IC50 (read-out: IC50) was 2200 nM.
Still for that read-out and setting: as for `Cc1ccc(C2C(C(=O)CC(C)C)=C(O)C(=O)N2c2ccc3[nH]cnc3c2)o1` (stereo not shown) [Compound 289, 1-(1H-Benzoimidazol-5-yl)-3-hydroxy-4-(3-methyl-butyryl)-5-(5-methyl-furan-2-yl)-1,5-dihydro-pyrrol-2-one], the figure is 760 nM.
Same read-out and setting: then `CC(C)C1=C(O)C(=O)N(c2ccc3[nH]cnc3c2)C1c1ccco1` (stereo not shown) [Compound 371, 1-(1H-Benzoimidazol-5-yl)-5-furan-2-yl-3-hydroxy-4-isopropyl-1,5-dihydro-pyrrol-2-one], with 5530 nM.
Still for that read-out and setting: then `CC(C)C1=C(O)C(=O)N(CCCn2ccnc2)C1c1cccs1` (stereo not shown) [Compound 71, 3-Hydroxy-1-(3-imidazol-1-yl-propyl)-4-isopropyl-5-thiophen-2-yl-1,5-dihydro-pyrrol-2-one], with 4000 nM; and `CC(C)CC(=O)C1=C(O)C(=O)N(c2ccc3[nH]cnc3c2)C1C1CCOC1` (stereo not shown) [Compound 291, 1-(1H-Benzoimidazol-5-yl)-3-hydroxy-4-(3-methyl-butyryl)-5-(tetrahydro-furan-3-yl)-1,5-dihydro-pyrrol-2-one], with 490 nM.
As to `O=C1C(O)=C(c2ccccc2)C(c2ccc(N3CCCC3)cc2)N1c1ccc2[nH]cnc2c1` (stereo not shown) [Compound 309, 1-(1H-Benzoimidazol-5-yl)-3-hydroxy-4-phenyl-5-(4-pyrrolidin-1-yl-phenyl)-1,5-dihydro-pyrrol-2-one], the IC50 (read-out: IC50) came to 6880 nM.
Still for that read-out and setting: as for `CCCCCC1=C(O)C(=O)N(CCCn2ccnc2)C1/C=C/C(C)C` (stereo not shown) [Compound 190, 3-Hydroxy-1-(3-imidazol-1-yl-propyl)-5-(3-methyl-but-1-enyl)-4-pentyl-1,5-dihydro-pyrrol-2-one], the figure is 400 nM; as for `CCC1=C(O)C(=O)N(c2ccc3[nH]cnc3c2)C1c1cc(Br)c(O)c(Br)c1` (stereo not shown) [Compound 288, 1-(1H-Benzoimidazol-5-yl)-5-(3,5-dibromo-4-hydroxy-phenyl)-4-ethyl-3-hydroxy-1,5-dihydro-pyrrol-2-one], 2290 nM; as for `CCCC1C(c2c[nH]c3ccccc23)=C(O)C(=O)N1CCCn1ccnc1` (stereo not shown) [Compound 115, 3-Hydroxy-1-(3-imidazol-1-yl-propyl)-4-(1H-indol-3-yl)-5-propyl-1,5-dihydro-pyrrol-2-one], 400 nM.
In the case of `CCCCCC1=C(O)C(=O)N(CCCn2ccnc2)C1c1ncc[nH]1` (stereo not shown) [Compound 205, 3-Hydroxy-5-(1H-imidazol-2-yl)-1-(3-imidazol-1-yl-propyl)-4-pentyl-1,5-dihydro-pyrrol-2-one], the IC50 (read-out: IC50) turned out to be 2200 nM.
In the case of `O=C1C(O)=C(c2c[nH]c3ccccc23)C(C2CCC=CO2)N1CCCn1ccnc1` (stereo not shown) [Compound 128, 5-(3,4-Dihydro-2H-pyran-2-yl)-3-hydroxy-1-(3-imidazol-1-yl-propyl)-4-(1H-indol-3-yl)-1,5-dihydro-pyrrol-2-one], the IC50 was 804 nM under setting [1] and 40 nM (read-out: IC50).
With `O=C1C(O)=C(c2c[nH]c3ccccc23)C(c2ccccc2)N1CCCn1ccnc1` (stereo not shown) [Compound 127, 3-Hydroxy-1-(3-imidazol-1-yl-propyl)-4-(1H-indol-3-yl)-5-phenyl-1,5-dihydro-pyrrol-2-one], the IC50 runs as follows: under setting [1], 434 nM; (read-out: IC50) 40 nM.
As for `CCCC(=O)C1=C(O)C(=O)N(c2ccc3[nH]cnc3c2)C1c1nccs1` (stereo not shown) [Compound 254, 1-(1H-Benzoimidazol-5-yl)-4-butyryl-3-hydroxy-5-thiazol-2-yl-1,5-dihydro-pyrrol-2-one], where the note is “read-out: IC50”, the IC50 was 2200 nM.
Same read-out and setting: as for `O=C1C(O)=C(c2ccccc2)C(C2CC2)N1CCCn1ccnc1` (stereo not shown) [Compound 105, 5-Cyclopropyl-3-hydroxy-1-(3-imidazol-1-yl-propyl)-4-phenyl-1,5-dihydro-pyrrol-2-one], the figure is 400 nM.
For `CCCCCC1=C(O)C(=O)N(CCCn2ccnc2)C1c1cccc(O)c1` (stereo not shown) [Compound 219, 3-Hydroxy-5-(3-hydroxy-phenyl)-1-(3-imidazol-1-yl-propyl)-4-pentyl-1,5-dihydro-pyrrol-2-one], the IC50 by setting is: under setting [1], 698 nM; (read-out: IC50) 40 nM.
For `CCC1=C(O)C(=O)N(CCCn2ccnc2)C1c1ccc(OC)cc1` (stereo not shown) [Compound 229, 4-Ethyl-3-hydroxy-1-(3-imidazol-1-yl-propyl)-5-(4-methoxy-phenyl)-1,5-dihydro-pyrrol-2-one], the IC50 (read-out: IC50) stood at 40 nM.
Regarding `O=C1C(O)=C(c2ccc(O)cc2)C(c2c(O)ccc3ccccc23)N1CCCn1ccnc1` (stereo not shown) [Compound 170, 3-Hydroxy-5-(2-hydroxy-naphthalen-1-yl)-4-(4-hydroxy-phenyl)-1-(3-imidazol-1-yl-propyl)-1,5-dihydro-pyrrol-2-one], the IC50 (read-out: IC50) was determined as 1300 nM.
With `CCCCCC1=C(O)C(=O)N(CCCn2ccnc2)C1C1CCC=CO1` (stereo not shown) [Compound 200, 5-(3,4-Dihydro-2H-pyran-2-yl)-3-hydroxy-1-(3-imidazol-1-yl-propyl)-4-pentyl-1,5-dihydro-pyrrol-2-one], the IC50 (read-out: IC50) turned out to be 40 nM.
The same measure, in the same setting: as for `CC(C)C1=C(O)C(=O)N(CCCn2ccnc2)C1c1ccccc1` (stereo not shown) [Compound 65, 3-Hydroxy-1-(3-imidazol-1-yl-propyl)-4-isopropyl-5-phenyl-1,5-dihydro-pyrrol-2-one], the figure is 3100 nM; as for `CC1=C(O)C(=O)N(CCCn2ccnc2)C1c1ccccc1F` (stereo not shown) [Compound 51, 5-(2-Fluoro-phenyl)-3-hydroxy-1-(3-imidazol-1-yl-propyl)-4-methyl-1,5-dihydro-pyrrol-2-one], 1300 nM; as for `CC(=O)C1=C(O)C(=O)N(c2ccc3[nH]cnc3c2)C1c1nccs1` (stereo not shown) [Compound 349, 4-Acetyl-1-(1H-benzoimidazol-5-yl)-3-hydroxy-5-thiazol-2-yl-1,5-dihydro-pyrrol-2-one], 1030 nM.
Turning to `O=C(C1=C(O)C(=O)N(c2ccc3[nH]cnc3c2)C1c1ccc(Cl)c(Cl)c1)C1CCCCC1` (stereo not shown) [Compound 372, 1-(1H-Benzoimidazol-5-yl)-4-cyclohexanecarbonyl-5-(3,4-dichloro-phenyl)-3-hydroxy-1,5-dihydro-pyrrol-2-one], the IC50 reads like this: under setting [1], 13.3 nM; (read-out: IC50) 400 nM.
For `CCC1=C(O)C(=O)N(CCCn2ccnc2)C1c1cc(Cl)cc(Cl)c1O` (stereo not shown) [Compound 220, 5-(3,5-Dichloro-2-hydroxy-phenyl)-4-ethyl-3-hydroxy-1-(3-imidazol-1-yl-propyl)-1,5-dihydro-pyrrol-2-one], the IC50 (read-out: IC50) turned out to be 2200 nM.
On the same count and under the same terms, then `O=C1C(O)=C(c2c[nH]c3ccccc23)C(c2ccc(O)cc2)N1CCCn1ccnc1` (stereo not shown) [Compound 145, 3-Hydroxy-5-(4-hydroxy-phenyl)-1-(3-imidazol-1-yl-propyl)-4-(1H-indol-3-yl)-1,5-dihydro-pyrrol-2-one], with 400 nM; and `CC(C)C1=C(O)C(=O)N(CCCn2ccnc2)C1c1cccc(O)c1` (stereo not shown) [Compound 75, 3-Hydroxy-5-(3-hydroxy-phenyl)-1-(3-imidazol-1-yl-propyl)-4-isopropyl-1,5-dihydro-pyrrol-2-one], with 4900 nM.
Under “compound from preparative synthesis, purified”, `O=C(C1=C(O)C(=O)N(c2ccc3[nH]cnc3c2)C1c1cccc(F)c1F)c1ccccc1` (stereo not shown) [Compound 466, 1-(1H-benzo[d]imidazol-5-yl)-4-benzoyl-5-(2,3-difluorophenyl)-3-hydroxy-1H-pyrrol-2(5H)-one] displayed a Ki of 3.31 nM. In addition, where the note is “read-out: IC50”, the IC50 was 39.8 nM.

As usually defined, the IC50 is the concentration that inhibits the measured activity by half. As a reminder, the Ki is the equilibrium dissociation constant of an inhibitor or competing ligand from its target. Low values mean tighter binding, high ones weaker binding.

The values are drawn from US8278345B2, “Inhibitors of glutaminyl cyclase” (Probiodrug AG, priority 2006, dated 2012).
